Results published in publication PMC10093686, “Structural insights into acetylated histone ligand recognition by the BDP1 bromodomain of Plasmodium falciparum” (International journal of biological macromolecules, 2022).
“Also recorded” adds a separate entry of the source.

What was measured:
PfBDP1-BRD (303–488) = experiment: NMR chemical shift perturbation (2D 15N-1H HSQC) titration with histone peptides; format: binding, Plasmodium falciparum; details: 0.3–0.5 mM 15N-labeled PfBDP1-BRD (303–488); 20 mM Tris-HCl pH 6.8, 150 mM NaCl, 10 mM DTT, 10% D2O; molar ratios 1:0, 1:0.5, 1:1, 1:2.5, 1:5; 25°C; result in words
Protocol: Chemical shift perturbation experiments were performed using 0.3–0.5 mM of uniformly ^15N-labeled PfBDP1-BRD (303–488) in NMR buffer containing 20 mM Tris-HCl pH 6.8, 150 mM NaCl, 10 mM DTT and 10% D2O. […] Two-dimensional ^15N−^1H HSQC (heteronuclear single quantum coherence) experiments for all samples were acquired on Bruker Avance III spectrometer equipped with a cryogenic 1.7 mm probe. The temperature of the samples was regulated at 25°C throughout data collection. All spectra were processed using TopSpin (Bruker) as described previously and analyzed using NMRFAM-SPARKY [48].

[1] = target: PfBDP1-BRD (P. falciparum Bromodomain Protein 1 bromodomain); experiment: ITC binding assay of PfBDP1-BRD with histone peptides; parameters: species or system Plasmodium falciparum; details: 5°C, 20 mM sodium phosphate pH 7.5, 150 mM NaCl, 1 mM TCEP, protein (303–488 or 333–456) 100–200 μM in cell, peptide 2.5–5.0 mM in syringe, 1:1 binding model, mean ± SD of three runs, non-binding ligands in duplicate
Protocol: Isothermal titration calorimetry (ITC) experiments were carried out using a MicroCal PEAQ-ITC and a MicroCal iTC200 (Malvern Panalytical). The purified PfBDP1-BRD proteins (containing residues 303–488 or 333–456) were dialyzed for 48 h at 4°C into ITC buffer containing 20 mM sodium phosphate buffer pH 7.5, 150 mM NaCl, and 1 mM TCEP. The dialyzed PfBDP1-BRD (303–488 or 333–456) proteins were added to the sample cell at concentrations of 100–200 μM, and between 2.5 and 5.0 mM of each histone peptide in the ITC dialysis buffer was placed in the injection syringe. A total of 20 injections were carried out, with the parameters set as follows. […] The remaining 19 injections were completed with an injection volume of 2 μL, a reaction time of 4 s, and a 150 s spacing time between each injection. All ITC runs were carried out at 5°C with a differential power (DP) value of 10, the feedback set to high, at a stirring speed of 750 RPM, and with an initial delay for the reaction set to 60 s.
The ITC data obtained were analyzed using the MicroCal PEAQ-ITC 200 analysis software provided with the instrument (Malvern Panalytical). The heat of dilutions for the buffer and peptide ligands were obtained from titrating buffer into buffer, buffer into PfBDP1-BRD protein (303–488 and 333–456), and histone peptide into buffer. The heats of dilution for the histone peptides were subtracted from the raw isotherms obtained from the histone peptide and PfBDP1-BRD (303–488 and 333–456) protein titrations. The first injection was discarded from the data analysis, and the data was integrated using a 1:1 binding model assuming a single set of identical binding sites. A Marquandt nonlinear least-squares analysis was used to calculate the binding affinities and N values from the normalized heat changes. Binding experiments were repeated in triplicate for each ligand and the mean KD was calculated from the average of the three runs, with the standard deviation coming from the mean.

Substance: ARTKQTAR(Kac)STGGKAPRKQLATKA [H3K9ac, histone H3 peptide (1–24) mono-acetylated at lysine 9]
- Chemical shift perturbations (CSPs) of PfBDP1-BRD backbone amide peaks upon addition of peptide (PfBDP1-BRD (303–488)): did not observe any CSPs
- PfBDP1-BRD KD [1]: did not observe any interaction; also recorded: No Binding

Substance: SGKGPAQKSQAA(Kac)KTAGKTLGPR [H2B.ZK13ac, histone H2B.Z peptide mono-acetylated at K13]
- PfBDP1-BRD KD [1]: No Binding

Substance: MEVPGVIGG(Kac)VGGKVGGKVLGLG [H2A.ZK11ac, histone H2A.Z peptide mono-acetylated at K11]
- Chemical shift perturbations (CSPs) of PfBDP1-BRD backbone amide peaks upon addition of peptide (PfBDP1-BRD (303–488)): absence of CSPs
- PfBDP1-BRD KD [1]: No Binding

Substance: MEVPGVIGGKVGGKVGGKVLGLG [H2A.Z unmodified, unmodified P. falciparum histone variant H2A.Z peptide]
- PfBDP1-BRD KD [1]: No Binding

Substance: SGRGKGG(Kac)GLGKGGAKRHRKVLRD [H4K8ac, histone H4 peptide (1–24) mono-acetylated at K8]
- PfBDP1-BRD KD [1]: No Binding

Substance: MEVPGVIGGKVGG(Kac)VGGKVLGLG [H2A.ZK15ac, histone H2A.Z peptide mono-acetylated at K15]
- PfBDP1-BRD KD [1]: No Binding

Substance: SGKGPAQKSQAAKKTAGKTLGPR [H2B.Z unmodified, unmodified P. falciparum histone variant H2B.Z peptide]
- PfBDP1-BRD KD [1]: No Binding

Substance: SGKGPAQKSQAAKKTAG(Kac)TLGPR [H2B.ZK18ac, histone H2B.Z peptide mono-acetylated at K18]
- PfBDP1-BRD KD [1]: No Binding

Substance: MEVPGVIGGKVGGKVGG(Kac)VLGLG [H2A.ZK19ac, histone H2A.Z peptide mono-acetylated at K19]
- PfBDP1-BRD KD [1]: No Binding

Substance: SGKGPAQ(Kac)SQAAKKTAGKTLGPR [H2B.ZK8ac, histone H2B.Z peptide mono-acetylated at K8]
- PfBDP1-BRD KD [1]: No Binding

Substance: SGKGPAQKSQAAK(Kac)TAGKTLGPR [H2B.ZK14ac, histone H2B.Z peptide mono-acetylated at K14]
- PfBDP1-BRD KD [1]: No Binding

Substance: SG(Kac)GPAQKSQAAKKTAGKTLGPR [H2B.ZK3ac, histone H2B.Z peptide mono-acetylated at K3]
- PfBDP1-BRD KD [1]: No Binding
